System: TFG-MET allograft tumors
Assay: RNA-sequencing, differential expression and GSEA of TFG-MET allograft tumors
Assay type: in vivo, mouse
Conditions: for NES / ES: CAP v Veh
Method: Error bars display standard error of mean, statistical significance was determined using t-test analysis. (****;p<0.0001, ***;p<0.001, **;p<0.01, *;p<0.05). […] Each dot represents an individual replicate. Error bars display standard error of the mean.
Each dot represents one gene.

CNC(=O)c1ccc(-c2cnc3ncc(Cc4ccc5ncccc5c4)n3n2)cc1F [Capmatinib]
NES (GOMF_METHYL_CPG_BINDING, padj 0.00511198): -1.901
ES (GOMF_MHC_CLASS_I_PROTEIN_BINDING): 0.5483
NES (GOMF_MHC_CLASS_I_PROTEIN_BINDING, padj 0.0474647): 1.828
ES (GOMF_MHC_PROTEIN_BINDING): 0.5523
NES (GOMF_MHC_PROTEIN_BINDING, padj 0.00543159): 2.003
ES (GOMF_MHC_PROTEIN_COMPLEX_BINDING): 0.5077
NES (GOMF_MHC_PROTEIN_COMPLEX_BINDING, padj 0.0199782): 1.841
ES (GOMF_MOLECULAR_CARRIER_ACTIVITY): -0.4555
NES (GOMF_MOLECULAR_CARRIER_ACTIVITY, padj 0.0120933): -1.714
ES (GOMF_MONOCARBOXYLIC_ACID_BINDING): 0.3828
NES (GOMF_MONOCARBOXYLIC_ACID_BINDING, padj 0.0474647): 1.672
ES (GOMF_MRNA_3_UTR_AU_RICH_REGION_BINDING): -0.5181
NES (GOMF_MRNA_3_UTR_AU_RICH_REGION_BINDING, padj 0.0473079): -1.618
NES (GOMF_NUCLEAR_HORMONE_RECEPTOR_BINDING, padj 0.072562): -1.431
ES (GOMF_NUCLEAR_IMPORT_SIGNAL_RECEPTOR_ACTIVITY): -0.6033
NES (GOMF_NUCLEAR_IMPORT_SIGNAL_RECEPTOR_ACTIVITY, padj 0.0320889): -1.75
ES (GOMF_NUCLEAR_LOCALIZATION_SEQUENCE_BINDING): -0.6311
NES (GOMF_NUCLEAR_LOCALIZATION_SEQUENCE_BINDING, padj 0.00765978): -1.864
ES (GOMF_NUCLEOSOMAL_DNA_BINDING): -0.5966
NES (GOMF_NUCLEOSOMAL_DNA_BINDING, padj 0.0072907): -1.89
ES (GOMF_N_ACETYLTRANSFERASE_ACTIVITY): -0.4164
NES (GOMF_N_ACETYLTRANSFERASE_ACTIVITY, padj 0.0419799): -1.576
ES (GOMF_N_ACYLTRANSFERASE_ACTIVITY): -0.4102
NES (GOMF_N_ACYLTRANSFERASE_ACTIVITY, padj 0.0206273): -1.607
ES (GOMF_OXIDOREDUCTASE_ACTIVITY_ACTING_ON_PEROXIDE_AS_ACCEPTOR): 0.4091
NES (GOMF_OXIDOREDUCTASE_ACTIVITY_ACTING_ON_PEROXIDE_AS_ACCEPTOR, padj 0.0419799): 1.715
ES (GOMF_PATTERN_RECOGNITION_RECEPTOR_ACTIVITY): 0.5546
NES (GOMF_PATTERN_RECOGNITION_RECEPTOR_ACTIVITY, padj 0.0257673): 1.913
ES (GOMF_PEPTIDE_LYSINE_N_ACETYLTRANSFERASE_ACTIVITY): -0.4722
NES (GOMF_PEPTIDE_LYSINE_N_ACETYLTRANSFERASE_ACTIVITY, padj 0.0420426): -1.64
ES (GOMF_PEPTIDE_N_ACETYLTRANSFERASE_ACTIVITY): -0.5177
NES (GOMF_PEPTIDE_N_ACETYLTRANSFERASE_ACTIVITY, padj 0.00513885): -1.848
ES (GOMF_PHOSPHATIDYLINOSITOL_BINDING): -0.3004
NES (GOMF_PHOSPHATIDYLINOSITOL_BINDING, padj 0.0651825): -1.368
ES (GOMF_POLY_A_BINDING): -0.5704
NES (GOMF_POLY_A_BINDING, padj 0.0381242): -1.705
ES (GOMF_POLY_PURINE_TRACT_BINDING): -0.5827
NES (GOMF_POLY_PURINE_TRACT_BINDING, padj 0.00978552): -1.871
ES (GOMF_POLY_PYRIMIDINE_TRACT_BINDING): -0.5996
NES (GOMF_POLY_PYRIMIDINE_TRACT_BINDING, padj 0.0067416): -1.9
ES (GOMF_PROMOTER_SPECIFIC_CHROMATIN_BINDING): -0.4442
NES (GOMF_PROMOTER_SPECIFIC_CHROMATIN_BINDING, padj 0.0320889): -1.624
ES (GOMF_PROTEIN_DEMETHYLASE_ACTIVITY): -0.5705
NES (GOMF_PROTEIN_DEMETHYLASE_ACTIVITY, padj 0.0162496): -1.8078
ES (GOMF_PROTEIN_DIMERIZATION_ACTIVITY): -0.2556
NES (GOMF_PROTEIN_DIMERIZATION_ACTIVITY, padj 0.0359639): -1.243
ES (GOMF_PROTEIN_HETERODIMERIZATION_ACTIVITY): -0.3318
NES (GOMF_PROTEIN_HETERODIMERIZATION_ACTIVITY, padj 0.0174921): -1.498
ES (GOMF_PROTEIN_KINASE_ACTIVITY): -0.2726
NES (GOMF_PROTEIN_KINASE_ACTIVITY, padj 0.0456955): -1.304
ES (GOMF_PROTEIN_PHOSPHATASE_2A_BINDING): -0.5386
NES (GOMF_PROTEIN_PHOSPHATASE_2A_BINDING, padj 0.0201355): -1.753
ES (GOMF_PROTEIN_SERINE_THREONINE_KINASE_ACTIVITY): -0.3032
NES (GOMF_PROTEIN_SERINE_THREONINE_KINASE_ACTIVITY, padj 0.0120933): -1.428
ES (GOMF_PROTEIN_TYROSINE_PHOSPHATASE_ACTIVITY): -0.3851
NES (GOMF_PROTEIN_TYROSINE_PHOSPHATASE_ACTIVITY, padj 0.0351889): -1.569
ES (GOMF_PROTON_CHANNEL_ACTIVITY): 0.5654
NES (GOMF_PROTON_CHANNEL_ACTIVITY, padj 0.036911): 1.8848
ES (GOMF_PROTON_TRANSPORTING_ATP_SYNTHASE_ACTIVITY_ROTATIONAL_MECHANISM): 0.5869
NES (GOMF_PROTON_TRANSPORTING_ATP_SYNTHASE_ACTIVITY_ROTATIONAL_MECHANISM, padj 0.0283897): 1.877
ES (GOMF_REGULATORY_RNA_BINDING): -0.5385
NES (GOMF_REGULATORY_RNA_BINDING, padj 0.00683082): -1.8485
ES (GOMF_RIBONUCLEOPROTEIN_COMPLEX_BINDING): -0.5611
NES (GOMF_RIBONUCLEOPROTEIN_COMPLEX_BINDING, padj 7.15005e-11): -2.398
ES (GOMF_RNA_POLYMERASE_CORE_ENZYME_BINDING): -0.5304
NES (GOMF_RNA_POLYMERASE_CORE_ENZYME_BINDING, padj 0.00672226): -1.848
ES (GOMF_RNA_POLYMERASE_II_SPECIFIC_DNA_BINDING_TRANSCRIPTION_FACTOR_BINDING): -0.3093
NES (GOMF_RNA_POLYMERASE_II_SPECIFIC_DNA_BINDING_TRANSCRIPTION_FACTOR_BINDING, padj 0.0419799): -1.413
ES (GOMF_RNA_POLYMERASE_II_TRANSCRIPTION_COREGULATOR_BINDING): -0.521
NES (GOMF_RNA_POLYMERASE_II_TRANSCRIPTION_COREGULATOR_BINDING, padj 0.0452435): -1.627
ES (GOMF_RNA_POLYMERASE_II_TRANSCRIPTION_COREPRESSOR_BINDING): -0.5717
NES (GOMF_RNA_POLYMERASE_II_TRANSCRIPTION_COREPRESSOR_BINDING, padj 0.0607303): -1.658
ES (GOMF_SCAVENGER_RECEPTOR_ACTIVITY): 0.3949
NES (GOMF_SCAVENGER_RECEPTOR_ACTIVITY, padj 0.0600708): 1.665
ES (GOMF_SMAD_BINDING): -0.4569
NES (GOMF_SMAD_BINDING, padj 0.00360904): -1.79
ES (GOMF_SNORNA_BINDING): -0.7989
NES (GOMF_SNORNA_BINDING, padj 3.3197e-10): -2.624
ES (GOMF_SUMO_BINDING): -0.6876
NES (GOMF_SUMO_BINDING, padj 0.00672226): -1.882
ES (GOMF_SUMO_TRANSFERASE_ACTIVITY): -0.594
NES (GOMF_SUMO_TRANSFERASE_ACTIVITY, padj 0.0682113): -1.626
ES (GOMF_S_ADENOSYLMETHIONINE_DEPENDENT_METHYLTRANSFERASE_ACTIVITY): -0.5424
NES (GOMF_S_ADENOSYLMETHIONINE_DEPENDENT_METHYLTRANSFERASE_ACTIVITY, padj 2.7667e-10): -2.336
ES (GOMF_THIOLESTER_HYDROLASE_ACTIVITY): 0.4211
NES (GOMF_THIOLESTER_HYDROLASE_ACTIVITY, padj 0.0377403): 1.7345
ES (GOMF_TRANSCRIPTION_COREGULATOR_BINDING): -0.4265
NES (GOMF_TRANSCRIPTION_COREGULATOR_BINDING, padj 0.0442278): -1.612
ES (GOMF_TRANSCRIPTION_COREPRESSOR_BINDING): -0.5161
ES (GOMF_TRANSITION_METAL_ION_BINDING): -0.2675
NES (GOMF_TRANSITION_METAL_ION_BINDING, padj 0.0113612): -1.302
ES (GOMF_TRANSLATION_REGULATOR_ACTIVITY): -0.5628
NES (GOMF_TRANSLATION_REGULATOR_ACTIVITY, padj 1.90601e-11): -2.407
ES (GOMF_TRNA_BINDING): -0.6579
NES (GOMF_TRNA_BINDING, padj 2.7667e-10): -2.532
ES (GOMF_UBIQUITIN_LIKE_PROTEIN_BINDING): -0.3584
NES (GOMF_UBIQUITIN_LIKE_PROTEIN_BINDING, padj 0.0474647): -1.467
ES (GOMF_UNFOLDED_PROTEIN_BINDING): -0.3758
NES GOCC_NUCLEOLUS (GSEA CAP vs Veh, C5 GO CC, padj 2.86725e-63): -2.612
NES GOCC_RIBONUCLEOPROTEIN_COMPLEX (GSEA CAP vs Veh, C5 GO CC, padj 3.5373e-43): -2.521
NES GOCC_NUCLEAR_BODY (GSEA CAP vs Veh, C5 GO CC, padj 3.83827e-29): -2.196
NES GOCC_PRERIBOSOME (GSEA CAP vs Veh, C5 GO CC, padj 8.43804e-27): -3.164
NES GOCC_CHROMOSOMAL_REGION (GSEA CAP vs Veh, C5 GO CC, padj 8.8925e-17): -2.317

Reference: article PMC11157767 (Molecular Cancer, 2024)
